Data reported in ChEMBL document CHEMBL5260852, “Long-Acting Tumor-Activated Prodrug of a TGFβR Inhibitor” (J Med Chem, 2021).
Numbered stars: 1 amine (or outer) side, 2 acyl side, 3 side chain; on linkers, the order of the positions; unused ones are H or OH. Square brackets hold non-standard residues; d marks the D form. Peptide text beside a SMILES is read from it. * marks the point of attachment. X1 = N#Cc1cnc2ccc(-c3c(-c4ccc(F)c(Cl)c4)ncn3CCOCN*)nn12; C18 diacid = O=C(O)CCCCCCCCCCCCCCCCC(=O)*; γGlu = O=C(O)[C@H](CCC(=O)[*:2])N[*:1]; PABC = O=C(OCc1ccc(N[*:1])cc1)[*:2]; AEEA = NCCOCCOCC(=O)O

Experiments:
[1] = Drug concentration in C57BL/6 mouse plasma at 6 mg/kg,iv and measured after 24 hrs by LC-MS/MS analysis; format: ADME, organism-based
[2] = AUC in C57BL/6 mouse plasma at 6 mg/kg,iv and measured upto 24 hrs by LC-MS/MS analysis; format: ADME, organism-based; parameters: dose 6 mg/kg, time < 24 hrs, route iv
[3] = Stability in mouse plasma assessed as parent compound remaining after 24 hrs by HPLC-MS analysis; format: ADME, cell-free; settings: read-out: Stability
[4] = Stability in rat plasma assessed as parent compound remaining after 24 hrs by HPLC-MS analysis; format: ADME, cell-free; settings: read-out: Stability
[5] = Prodrug conversion in blood of C57BL/6 mouse xenografted mouse MC38 cells assessed as BMS-986260 Cmax at 8 mg/kg,iv and measured after 72 hrs by LC-MS/MS analysis; format: ADME, organism-based, MC-38; parameters: dose 8 mg/kg, time 72 hrs, route iv; settings: in vivo
[6] = Prodrug conversion in heart of C57BL/6 mouse xenografted mouse MC38 cells assessed as BMS-986260 Cmax at 8 mg/kg,iv and measured after 72 hrs by LC-MS/MS analysis; format: ADME, organism-based, MC-38; parameters: dose 8 mg/kg, time 72 hrs, route iv; settings: in vivo
[7] = Prodrug conversion in tumor of C57BL/6 mouse xenografted mouse MC38 cells assessed as BMS-986260 Cmax at 8 mg/kg,iv and measured after 72 hrs by LC-MS/MS analysis; format: ADME, organism-based, Neoplasm, MC-38; parameters: dose 8 mg/kg, time 72 hrs, route iv; settings: in vivo
[8] = Prodrug conversion in blood of C57BL/6 mouse xenografted mouse MC38 cells assessed as BMS-986260 Tmax at 8 mg/kg,iv and measured after 72 hrs by LC-MS/MS analysis; format: ADME, organism-based, MC-38; settings: in vivo
[9] = Prodrug conversion in heart of C57BL/6 mouse xenografted mouse MC38 cells assessed as BMS-986260 Tmax at 8 mg/kg,iv and measured after 72 hrs by LC-MS/MS analysis; format: ADME, organism-based, MC-38; settings: in vivo
[10] = Prodrug conversion in tumor of C57BL/6 mouse xenografted mouse MC38 cells assessed as BMS-986260 Tmax at 8 mg/kg,iv and measured after 72 hrs by LC-MS/MS analysis; format: ADME, organism-based, Neoplasm, MC-38; settings: in vivo
[11] = Prodrug conversion in blood of C57BL/6 mouse xenografted mouse MC38 cells assessed as BMS-986260 AUC (0 to 72 hrs) at 8 mg/kg,iv and measured after 72 hrs by LC-MS/MS analysis; format: ADME, organism-based, MC-38; parameters: time 72 hrs, dose 8 mg/kg, route iv; settings: in vivo
[12] = Prodrug conversion in heart of C57BL/6 mouse xenografted mouse MC38 cells assessed as BMS-986260 AUC (0 to 72 hrs) at 8 mg/kg,iv and measured after 72 hrs by LC-MS/MS analysis; format: ADME, organism-based, MC-38; parameters: time 72 hrs, dose 8 mg/kg, route iv; settings: in vivo
[13] = Prodrug conversion in tumor of C57BL/6 mouse xenografted mouse MC38 cells assessed as BMS-986260 AUC (0 to 72 hrs) at 8 mg/kg,iv and measured after 72 hrs by LC-MS/MS analysis; format: ADME, organism-based, Neoplasm, MC-38; parameters: time 72 hrs, dose 8 mg/kg, route iv; settings: in vivo
[14] = Prodrug conversion in C57BL/6 mouse xenografted mouse MC38 cells assessed as BMS-986260 ratio of AUC in heart to blood at 8 mg/kg,iv and measured after 72 hrs by LC-MS/MS analysis; format: ADME, organism-based, MC-38; settings: other tissue
[15] = Prodrug conversion in blood of C57BL/6 mouse xenografted mouse MC38 cells assessed as BMS-986260 ratio of AUC in tumor to blood at 8 mg/kg,iv and measured after 72 hrs by LC-MS/MS analysis; format: ADME, organism-based, MC-38; settings: tumour
[16] = Prodrug conversion in blood of C57BL/6 mouse xenografted mouse MC38 cells assessed as BMS-986260 ratio of AUC in tumor to heart at 8 mg/kg,iv and measured after 72 hrs by LC-MS/MS analysis; format: ADME, organism-based, MC-38; settings: in vivo
[17] = Prodrug conversion in blood of C57BL/6 mouse xenografted mouse MC38 cells assessed as BMS-986260 AUC (0 to 48 hrs) at 8 mg/kg,iv and measured after 48 hrs by LC-MS/MS analysis; format: ADME, organism-based, MC-38; parameters: dose 8 mg/kg, time 48 hrs, route iv; settings: in vivo
[18] = Prodrug conversion in tumor of C57BL/6 mouse xenografted mouse MC38 cells assessed as BMS-986260 Tmax at 8 mg/kg,iv and measured after 48 hrs by LC-MS/MS analysis; format: ADME, organism-based, Neoplasm, MC-38; settings: in vivo
[19] = Prodrug conversion in heart of C57BL/6 mouse xenografted mouse MC38 cells assessed as BMS-986260 Tmax at 8 mg/kg,iv and measured after 48 hrs by LC-MS/MS analysis; format: ADME, organism-based, MC-38; settings: in vivo
[20] = Prodrug conversion in blood of C57BL/6 mouse xenografted mouse MC38 cells assessed as BMS-986260 Tmax at 8 mg/kg,iv and measured after 48 hrs by LC-MS/MS analysis; format: ADME, organism-based, MC-38; settings: in vivo
[21] = Prodrug conversion in tumor of C57BL/6 mouse xenografted mouse MC38 cells assessed as BMS-986260 Cmax at 8 mg/kg,iv and measured after 48 hrs by LC-MS/MS analysis; format: ADME, organism-based, Neoplasm, MC-38; parameters: dose 8 mg/kg, time 48 hrs, route iv; settings: in vivo
[22] = Prodrug conversion in heart of C57BL/6 mouse xenografted mouse MC38 cells assessed as BMS-986260 Cmax at 8 mg/kg,iv and measured after 48 hrs by LC-MS/MS analysis; format: ADME, organism-based, MC-38; parameters: time 48 hrs, dose 8 mg/kg, route iv; settings: in vivo
[23] = Prodrug conversion in blood of C57BL/6 mouse xenografted mouse MC38 cells assessed as BMS-986260 Cmax at 8 mg/kg,iv and measured after 48 hrs by LC-MS/MS analysis; format: ADME, organism-based, MC-38; parameters: time 48 hrs, dose 8 mg/kg, route iv; settings: in vivo
[24] = Prodrug conversion in heart of C57BL/6 mouse xenografted mouse MC38 cells assessed as BMS-986260 AUC (0 to 48 hrs) at 8 mg/kg,iv and measured after 48 hrs by LC-MS/MS analysis; format: ADME, organism-based, MC-38; parameters: time 48 hrs, dose 8 mg/kg, route iv; settings: in vivo
[25] = Prodrug conversion in tumor of C57BL/6 mouse xenografted mouse MC38 cells assessed as BMS-986260 AUC (0 to 48 hrs) at 8 mg/kg,iv and measured after 48 hrs by LC-MS/MS analysis; format: ADME, organism-based, Neoplasm, MC-38; parameters: dose 8 mg/kg, time 48 hrs, route iv; settings: in vivo
[26] = Prodrug conversion in C57BL/6 mouse xenografted mouse MC38 cells assessed as BMS-986260 ratio of AUC in heart to blood at 8 mg/kg,iv and measured after 48 hrs by LC-MS/MS analysis; format: ADME, organism-based, MC-38; settings: other tissue
[27] = Prodrug conversion in C57BL/6 mouse xenografted mouse MC38 cells assessed as BMS-986260 ratio of AUC in tumor to blood at 8 mg/kg,iv and measured after 48 hrs by LC-MS/MS analysis; format: ADME, organism-based, MC-38; settings: tumour
[28] = Prodrug conversion in C57BL/6 mouse xenografted mouse MC38 cells assessed as BMS-986260 ratio of AUC in tumor to heart at 8 mg/kg,iv and measured after 48 hrs by LC-MS/MS analysis; format: ADME, organism-based, MC-38; settings: in vivo

**Q.** With `CC(C)C[C@H](NC(=O)COCCOCCNC(=O)COCCOCCNC(=O)CC[C@H](NC(=O)CC[C@H](NC(=O)CC[C@H](NC(=O)CCCCCCCCCCCCCCCCC(=O)O)C(=O)O)C(=O)O)C(=O)O)C(=O)N[C@@H](CO)C(=O)NCC(=O)N[C@@H](CCCCN)C(=O)Nc1ccc(COC(=O)NCOCCn2cnc(-c3ccc(F)c(Cl)c3)c2-c2ccc3ncc(C#N)n3n2)cc1` ({C18 diacid-γGlu-γGlu-γGlu-AEEA-AEEA}-LSGK[PABC]-X1) as the compound, how does the concentration at 24 h [1] read?
**A.** 5200 nM

**Q.** What about the AUC at 24 h [2] of the same compound?
**A.** 270 µM·h

**Q.** What about the remaining at 24 h [3] of the same compound?
**A.** 96%

**Q.** What about the remaining at 24 h [4] of the same compound?
**A.** 93%

**Q.** And the Cmax [5]?
**A.** 140 nM

**Q.** What about the Cmax [6] of the same compound?
**A.** 270 nM

**Q.** And the Cmax [7]?
**A.** 310 nM

**Q.** What about the Tmax [8] of the same compound?
**A.** 1 h

**Q.** What about the Tmax [9] of the same compound?
**A.** 8 h

**Q.** And the Tmax [10]?
**A.** 8 h

**Q.** And the AUC [11]?
**A.** 4.6 µM·h

**Q.** What about the AUC [12] of the same compound?
**A.** 8.4 µM·h

**Q.** And the AUC [13]?
**A.** 13 µM·h

**Q.** What about the “Ratio AUC” value [14] of the same compound?
**A.** 1.8

**Q.** What about the “Ratio AUC” value [15] of the same compound?
**A.** 2.8

**Q.** And the “Ratio AUC” value [16]?
**A.** 1.6

**Q.** For `CC(C)C[C@H](NC(=O)COCCOCCNC(=O)COCCOCCNC(=O)CC[C@H](NC(=O)CCCCCCCCCCCCCCCCC(=O)O)C(=O)O)C(=O)N[C@@H](CO)C(=O)NCC(=O)N[C@@H](CCCCN)C(=O)Nc1ccc(COC(=O)NCOCCn2cnc(-c3ccc(F)c(Cl)c3)c2-c2ccc3ncc(C#N)n3n2)cc1` ({C18 diacid-γGlu-AEEA-AEEA}-LSGK[PABC]-X1), which AUC [17] is on record?
**A.** 3 µM·h

**Q.** And the Tmax [18]?
**A.** 1 h

**Q.** What about the Tmax [19] of the same compound?
**A.** 8 h

**Q.** What about the Tmax [20] of the same compound?
**A.** 4 h

**Q.** And the Cmax [21]?
**A.** 470 nM

**Q.** And the Cmax [22]?
**A.** 300 nM

**Q.** What about the Cmax [23] of the same compound?
**A.** 160 nM

**Q.** What about the concentration at 24 h [1] of the same compound?
**A.** > 1000 nM

**Q.** What about the AUC at 24 h [2] of the same compound?
**A.** 348 µM·h

**Q.** What about the remaining at 24 h [3] of the same compound?
**A.** 79%

**Q.** What about the remaining at 24 h [4] of the same compound?
**A.** 84%

**Q.** What about the AUC [24] of the same compound?
**A.** 5.4 µM·h

**Q.** And the AUC [25]?
**A.** 6.6 µM·h

**Q.** What about the “Ratio AUC” value [26] of the same compound?
**A.** 1.8

**Q.** What about the “Ratio AUC” value [27] of the same compound?
**A.** 2.2

**Q.** And the “Ratio AUC” value [28]?
**A.** 1.2
